These results are taken from PubChem BioAssay AID328 (DTP/NCI, 2004).

Where “and” joins values, the source holds several entries; their conditions need not be identical. Equal values may be shown once. Toxic doses and inconclusive results are not listed. Residues, ends and D or L forms follow the SMILES beside them. *: point of attachment. For = O=C*

In the experiment the test system is BDF1 mice, P388 leukemia ip, median survival T/C. Kind of experiment: NCI In Vivo Anticancer Drug Screen. Data for tumor model P388 Leukemia (intraperitoneal) in B6D2F1 (BDF1) mice. The conditions noted are these: endpoint: median survival time, higher = longer survival. In outline:
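Reported as T/C, where T is the survival measurement in dosed animals and C the same measurement in vehicle controls.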

Setting [1] is: dose: 100.0 mg/kg/injection, schedule: Q01DX009 (ip), vehicle: saline with Tween-80.
Where [2] appears, read: dose: 100.0 mg/kg/injection, schedule: Q04DX003 (ip), vehicle: saline with Tween-80.
The mark [3] stands for this setting: dose: 200.0 mg/kg/injection, schedule: Q01DX009 (ip), vehicle: saline with Tween-80.
The mark [4] stands for this setting: dose: 200.0 mg/kg/injection, schedule: Q04DX003 (ip), vehicle: saline with Tween-80.
[5] abbreviates: dose: 400.0 mg/kg/injection, schedule: Q01DX009 (ip), vehicle: saline with Tween-80.
[6] abbreviates: dose: 400.0 mg/kg/injection, schedule: Q04DX003 (ip), vehicle: saline with Tween-80.
The mark [7] stands for this setting: dose: 50.0 mg/kg/injection, schedule: Q01DX009 (ip), vehicle: saline with Tween-80.
The mark [8] stands for this setting: dose: 12.5 mg/kg/injection, schedule: Q01DX009 (ip), vehicle: saline.
Where [9] appears, read: dose: 25.0 mg/kg/injection, schedule: Q01DX009 (ip), vehicle: saline.
Where [10] appears, read: dose: 50.0 mg/kg/injection, schedule: Q01DX009 (ip), vehicle: saline.
The mark [11] stands for this setting: dose: 50.0 mg/kg/injection, schedule: Q04DX003 (ip), vehicle: saline.
Setting [12] is: dose: 200.0 mg/kg/injection, schedule: Q04DX003 (ip), vehicle: saline.
[13] abbreviates: dose: 25.0 mg/kg/injection, schedule: Q01DX009 (ip), vehicle: saline with Tween-80.
Where [14] appears, read: dose: 100.0 mg/kg/injection, schedule: Q04DX003 (ip), vehicle: Klucel (hydroxypropylcellulose) (HPC).
The mark [15] stands for this setting: dose: 200.0 mg/kg/injection, schedule: Q04DX003 (ip), vehicle: Klucel (hydroxypropylcellulose) (HPC).
The mark [16] stands for this setting: dose: 400.0 mg/kg/injection, schedule: Q04DX003 (ip), vehicle: Klucel (hydroxypropylcellulose) (HPC).

Take `COC(=O)CCSCCC(=O)OC`: the T/C under setting [1] was 100 % of control; the T/C under setting [2] was 110 % of control; the T/C under setting [3] is 100 % of control; the T/C under setting [4] was 100 % of control; the T/C under setting [5] was 100 % of control; the T/C under setting [6] is 105 % of control.
Consider `CN(C)CCCNc1cc(/C=C/c2cccc3ccccc23)nc2ccccc12`, for which the T/C runs as follows: under setting [7], 95 % of control; under setting [1], 88 % of control; under setting [3], 101 % of control.
`CCOc1ccn(CC(=O)Nc2nccs2)c(=O)n1`: the T/C was 104 % of control under setting [8]; 95 % of control under setting [9]; 104 % of control under setting [10]; 114 % of control under setting [11]; 104 % of control (dose: 100.0 mg/kg/injection, schedule: Q01DX009 (ip), vehicle: saline); 100 % of control (dose: 200.0 mg/kg/injection, schedule: Q01DX009 (ip), vehicle: saline). Also, the T/C is 106 % of control under setting [12]; 94 % of control (dose: 400.0 mg/kg/injection, schedule: Q01DX009 (ip), vehicle: saline); 97 % of control (dose: 400.0 mg/kg/injection, schedule: Q04DX003 (ip), vehicle: saline).
Regarding `C[C@]12C=CC(=O)C=C1CC[C@@H]1[C@@H]2[C@@H](O)C[C@@]2(C)[C@H]1CC[C@]2(O)C(=O)COC(=O)CCC1CCCC1`, the T/C is 113 % of control under setting [13]; 109 % of control under setting [7]; 95 % of control and 100 % of control under setting [1].
Consider `O=C(/C=C\c1ccccc1)/C=C/c1ccccc1`, for which the T/C (dose: 100.0 mg/kg/injection, schedule: Q04DX003 (sc), vehicle: olive oil, sesame oil, peanut oil) is 100 % of control; the T/C (dose: 200.0 mg/kg/injection, schedule: Q04DX003 (sc), vehicle: olive oil, sesame oil, peanut oil) was 100 % of control; the T/C (dose: 400.0 mg/kg/injection, schedule: Q04DX003 (sc), vehicle: olive oil, sesame oil, peanut oil) was 100 % of control.
Consider `O=c1ccc2cc(-c3ccncc3)cnc2[nH]1`, for which the T/C (dose: 100.0 mg/kg/injection, schedule: Q04DX002 (ip), vehicle: saline with Tween-80) is 108 % of control.
Take `C=CC(=O)NCNC(=O)CCBr`: the T/C is, setting by setting: under setting [4], 150 % of control; (dose: 300.0 mg/kg/injection, schedule: Q04DX003 (ip), vehicle: saline with Tween-80) 170 % of control.
On to `COC(=O)C(CC(C)C)NC(=O)C(Cc1ccc(O)cc1)NC=O` (stereo not drawn) (For-Tyr-Leu-OMe; configuration not given here), for which the T/C by setting is: under setting [1], 99 % of control; under setting [2], 105 % of control; under setting [3], 115 % of control; under setting [4], 110 % of control; under setting [5], 106 % of control; under setting [6], 112 % of control.
For `O=C(O)CCC(=O)/C=C1/Nc2ccccc2C1=O`, the T/C runs as follows: under setting [2], 110 % of control; under setting [4], 120 % of control.
On to `C=C(C)CC#N`, for which the T/C runs as follows: under setting [11], 100 % of control; (dose: 100.0 mg/kg/injection, schedule: Q04DX003 (ip), vehicle: saline) 109 % of control; under setting [12], 109 % of control.
For the molecule `OCCN1CCN(CCCN2c3ccccc3Sc3cccnc32)CC1`, the T/C under setting [8] was 104 % of control; the T/C (dose: 18.75 mg/kg/injection, schedule: Q04DX003 (ip), vehicle: saline) was 96 % of control; the T/C under setting [9] is 108 % of control and 110 % of control; the T/C (dose: 37.5 mg/kg/injection, schedule: Q04DX003 (ip), vehicle: saline) was 107 % of control; the T/C under setting [10] is 122 % of control.
Take `CC(C)C(=O)c1ccc(-c2ccccc2)cc1`: the T/C (dose: 12.5 mg/kg/injection, schedule: Q01DX009 (ip), vehicle: water) is 105 % of control; the T/C (dose: 25.0 mg/kg/injection, schedule: Q01DX009 (ip), vehicle: water) was 113 % of control; the T/C (dose: 25.0 mg/kg/injection, schedule: Q04DX003 (ip), vehicle: water) was 97 % of control; the T/C (dose: 50.0 mg/kg/injection, schedule: Q01DX009 (ip), vehicle: water) is 102 % of control; the T/C (dose: 50.0 mg/kg/injection, schedule: Q04DX003 (ip), vehicle: water) was 101 % of control; the T/C (dose: 100.0 mg/kg/injection, schedule: Q01DX009 (ip), vehicle: water) was 111 % of control. The T/C (dose: 100.0 mg/kg/injection, schedule: Q04DX003 (ip), vehicle: water) was 97 % of control; the T/C (dose: 200.0 mg/kg/injection, schedule: Q01DX009 (ip), vehicle: water) was 102 % of control; the T/C (dose: 200.0 mg/kg/injection, schedule: Q04DX003 (ip), vehicle: water) was 92 % of control; the T/C (dose: 400.0 mg/kg/injection, schedule: Q01DX009 (ip), vehicle: water) was 119 % of control; the T/C (dose: 400.0 mg/kg/injection, schedule: Q04DX003 (ip), vehicle: water) was 89 % of control.
Consider `CCCCCCC(=O)O[C@H]1CC[C@H]2[C@@H]3CCC4=CC(=O)CC[C@]4(C)[C@H]3CC[C@]12C`, for which the T/C was 120 % of control (dose: 25.0 mg/kg/injection, schedule: Q01DX009 (ip), vehicle: other); 100 % of control (dose: 25.0 mg/kg/injection, schedule: Q04DX003 (ip), vehicle: other); 100 % of control (dose: 50.0 mg/kg/injection, schedule: Q01DX009 (ip), vehicle: other); 100 % of control (dose: 50.0 mg/kg/injection, schedule: Q04DX003 (ip), vehicle: other); 100 % of control (dose: 66.0 mg/kg/injection, schedule: Q01DX009 (ip), vehicle: other); 100 % of control (dose: 100.0 mg/kg/injection, schedule: Q01DX009 (ip), vehicle: other). In addition, the T/C is, setting by setting: (dose: 100.0 mg/kg/injection, schedule: Q04DX003 (ip), vehicle: other) 100 % of control; (dose: 150.0 mg/kg/injection, schedule: Q01DX009 (ip), vehicle: other) 90 % of control.
For the molecule `COC(=O)c1ccc(OS(=O)(=O)c2cccc([N+](=O)[O-])c2)cc1`, the T/C is 88 % of control under setting [1]; 100 % of control under setting [14]; 100 % of control under setting [3]; 100 % of control under setting [15]; 88 % of control under setting [5]; 100 % of control under setting [16].
`CCOC(=O)C1=S=C(SC)N(C)C1=O`: the T/C reads like this: under setting [7], 106 % of control and 115 % of control; under setting [1], 103 % of control and 116 % of control.
`OC/C=[CH]\[Sn]([c]1ccccc1)([c]1ccccc1)[c]1ccccc1`: the T/C runs as follows: under setting [7], 89 % of control; under setting [1], 115 % of control; under setting [3], 106 % of control.
Taken in the same sequence, the figures for `O=C(NC12CC3CC(CC(C3)C1)C2)Oc1ccccc1` were 102 % of control, 102 % of control and 93 % of control.
As to `O=C1/C(=C\c2ccc(Cl)cc2)SC(=S)N1c1ccccc1`, the T/C by setting is: (dose: 37.5 mg/kg/injection, schedule: Q01DX009 (ip), vehicle: saline with Tween-80) 88 % of control; (dose: 75.0 mg/kg/injection, schedule: Q01DX009 (ip), vehicle: saline with Tween-80) 97 % of control; (dose: 150.0 mg/kg/injection, schedule: Q01DX009 (ip), vehicle: saline with Tween-80) 108 % of control.
In the case of `COc1cc2c(cc1O)CCCCC2=O`, the T/C under setting [13] is 109 % of control; the T/C under setting [7] was 104 % of control; the T/C under setting [1] was 104 % of control; the T/C under setting [14] is 110 % of control; the T/C under setting [15] was 95 % of control; the T/C under setting [16] is 90 % of control.
As to `COC(=O)c1c2ccccc2cn1Cc1ccccc1`, the T/C was 89 % of control under setting [13]; 90 % of control and 93 % of control under setting [7]; 100 % of control under setting [1]; 100 % of control under setting [3].
For `COc1cc2c(cc1OC)C(c1c(-c3c(Cl)cccc3Cl)noc1C)=NCC2`, the T/C runs as follows: under setting [7], 99 % of control; under setting [1], 92 % of control; under setting [3], 106 % of control.
Turning to `C/C=C(\C)C(=O)OC1CC[N+]2([O-])CCC(COC(=O)/C(=C/C)CO)C12` (stereo not given), the T/C was 111 % of control (dose: 30.0 mg/kg/injection, schedule: Q01DX010 (ip), vehicle: saline); 111 % of control (dose: 60.0 mg/kg/injection, schedule: Q01DX010 (ip), vehicle: saline); 116 % of control (dose: 100.0 mg/kg/injection, schedule: Q01DX010 (ip), vehicle: saline).
